Data published in PubChem BioAssay AID1963451 (Molecular Pharmacology Branch, DTP, NCI, 2024).

Test system: 521955-158-R6-J3-PDC complex spheroid growth, % test/control
Experiment: Anticancer human tumor 521955-158-R6-J3-PDC patient-derived pancreatic carcinoma cell line growth inhibition [Asc]
Settings: for IC50: curve of first compound; for viability, T/C: stronger effect = lower value
In short: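 Stromal components (HUVEC and hMSC) are co-assembled with the cancer cells into multicellular spheroids. Drugs are then added singly or paired, at concentrations falling by half-log increments from a clinically achievable maximum, capped at 10 microM without known Cmax.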
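Further: spheroids exposed to compounds for 7 days.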
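Wherever viability, T/C is given: 100% = DMSO vehicle control wells.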

## Cc1nc(N2CCC3(CC2)COC(C)C3N)c(CO)nc1Sc1ccnc(N)c1Cl (centres undefined) + CCN1C(C(=O)NC23CCC(C(=O)O)(CC2)CC3)C(c2cccc(Cl)c2F)C2(C(=O)Nc3cc(Cl)ccc32)C12CCCCC2
Second compound 0.00949 µM
  IC50: > 3 µM
Second compound 0.03 µM
  IC50: > 3 µM
Second compound 0.0949 µM
  IC50: > 3 µM
Second compound 0.3 µM
  IC50: > 3 µM
Second compound 0.949 µM
  IC50: > 3 µM
Second compound 3 µM
  IC50: > 3 µM
Second compound 0.00949 µM, first compound 0.00949 µM
  viability, T/C: 128%
Second compound 0.00949 µM, first compound 0.03 µM
  viability, T/C: 107%
Second compound 0.00949 µM, first compound 0.0949 µM
  viability, T/C: 92.8%
Second compound 0.00949 µM, first compound 0.3 µM
  viability, T/C: 93.8%
Second compound 0.00949 µM, first compound 0.949 µM
  viability, T/C: 77.8%
Second compound 0.00949 µM, first compound 3 µM
  viability, T/C: 74.5%
Second compound 0.03 µM, first compound 0.00949 µM
  viability, T/C: 109%
Second compound 0.03 µM, first compound 0.03 µM
  viability, T/C: 104%
Second compound 0.03 µM, first compound 0.0949 µM
  viability, T/C: 91%
Second compound 0.03 µM, first compound 0.3 µM
  viability, T/C: 106%
Second compound 0.03 µM, first compound 0.949 µM
  viability, T/C: 93.8%
Second compound 0.03 µM, first compound 3 µM
  viability, T/C: 85.8%
Second compound 0.0949 µM, first compound 0.00949 µM
  viability, T/C: 115%
Second compound 0.0949 µM, first compound 0.03 µM
  viability, T/C: 113%
Second compound 0.0949 µM, first compound 0.0949 µM
  viability, T/C: 106%
Second compound 0.0949 µM, first compound 0.3 µM
  viability, T/C: 82.6%
Second compound 0.0949 µM, first compound 0.949 µM
  viability, T/C: 82.2%
Second compound 0.0949 µM, first compound 3 µM
  viability, T/C: 79.8%
Second compound 0.3 µM, first compound 0.00949 µM
  viability, T/C: 112%
Second compound 0.3 µM, first compound 0.03 µM
  viability, T/C: 82.6%
Second compound 0.3 µM, first compound 0.0949 µM
  viability, T/C: 113%
Second compound 0.3 µM, first compound 0.3 µM
  viability, T/C: 95%
Second compound 0.3 µM, first compound 0.949 µM
  viability, T/C: 83%
Second compound 0.3 µM, first compound 3 µM
  viability, T/C: 92.6%
Second compound 0.949 µM, first compound 0.00949 µM
  viability, T/C: 133%
Second compound 0.949 µM, first compound 0.03 µM
  viability, T/C: 104%
Second compound 0.949 µM, first compound 0.0949 µM
  viability, T/C: 93.5%
Second compound 0.949 µM, first compound 0.3 µM
  viability, T/C: 92.4%
Second compound 0.949 µM, first compound 0.949 µM
  viability, T/C: 82.2%
Second compound 0.949 µM, first compound 3 µM
  viability, T/C: 83.1%
Second compound 3 µM, first compound 0.00949 µM
  viability, T/C: 114%
Second compound 3 µM, first compound 0.03 µM
  viability, T/C: 90.2%
Second compound 3 µM, first compound 0.0949 µM
  viability, T/C: 104%
Second compound 3 µM, first compound 0.3 µM
  viability, T/C: 84.1%
Second compound 3 µM, first compound 0.949 µM
  viability, T/C: 87.5%
Second compound 3 µM, first compound 3 µM
  viability, T/C: 72.3%

## O=C(c1cc(Cc2n[nH]c(=O)c3ccccc23)ccc1F)N1CCN(C(=O)C2CC2)CC1 + CNC(C)C(=O)NC1CN(S(=O)(=O)c2cccc(S(=O)(=O)N3CCC4CCC(C(=O)NC(c5ccccc5)c5ccccc5)N4C(=O)C(NC(=O)C(C)NC)C3)c2)CCC2CCC(C(=O)NC(c3ccccc3)c3ccccc3)N2C1=O
Second compound 0.00316 µM
  IC50: > 10 µM
Second compound 0.01 µM
  IC50: > 10 µM
Second compound 0.0316 µM
  IC50: > 10 µM
Second compound 0.1 µM
  IC50: > 10 µM
Second compound 0.316 µM
  IC50: > 10 µM
Second compound 1 µM
  IC50: > 10 µM
Second compound 0.00316 µM, first compound 0.0316 µM
  viability, T/C: 159%
Second compound 0.00316 µM, first compound 0.1 µM
  viability, T/C: 159%
Second compound 0.00316 µM, first compound 0.316 µM
  viability, T/C: 153%
Second compound 0.00316 µM, first compound 1 µM
  viability, T/C: 151%
Second compound 0.00316 µM, first compound 3.16 µM
  viability, T/C: 155%
Second compound 0.00316 µM, first compound 10 µM
  viability, T/C: 160%
Second compound 0.01 µM, first compound 0.0316 µM
  viability, T/C: 166%
Second compound 0.01 µM, first compound 0.1 µM
  viability, T/C: 133%
Second compound 0.01 µM, first compound 0.316 µM
  viability, T/C: 148%
Second compound 0.01 µM, first compound 1 µM
  viability, T/C: 153%
Second compound 0.01 µM, first compound 3.16 µM
  viability, T/C: 138%
Second compound 0.01 µM, first compound 10 µM
  viability, T/C: 119%
Second compound 0.0316 µM, first compound 0.0316 µM
  viability, T/C: 97.5%
Second compound 0.0316 µM, first compound 0.1 µM
  viability, T/C: 87.8%
Second compound 0.0316 µM, first compound 0.316 µM
  viability, T/C: 87.7%
Second compound 0.0316 µM, first compound 1 µM
  viability, T/C: 74.3%
Second compound 0.0316 µM, first compound 3.16 µM
  viability, T/C: 132%
Second compound 0.0316 µM, first compound 10 µM
  viability, T/C: 84.9%
Second compound 0.1 µM, first compound 0.0316 µM
  viability, T/C: 92%
Second compound 0.1 µM, first compound 0.1 µM
  viability, T/C: 81.5%
Second compound 0.1 µM, first compound 0.316 µM
  viability, T/C: 87.4%
Second compound 0.1 µM, first compound 1 µM
  viability, T/C: 85.8%
Second compound 0.1 µM, first compound 3.16 µM
  viability, T/C: 138%
Second compound 0.1 µM, first compound 10 µM
  viability, T/C: 82.3%
Second compound 0.316 µM, first compound 0.0316 µM
  viability, T/C: 92.5%
Second compound 0.316 µM, first compound 0.1 µM
  viability, T/C: 81.5%
Second compound 0.316 µM, first compound 0.316 µM
  viability, T/C: 74.3%
Second compound 0.316 µM, first compound 1 µM
  viability, T/C: 72.7%
Second compound 0.316 µM, first compound 3.16 µM
  viability, T/C: 138%
Second compound 0.316 µM, first compound 10 µM
  viability, T/C: 81.7%
Second compound 1 µM, first compound 0.0316 µM
  viability, T/C: 93.3%
Second compound 1 µM, first compound 0.1 µM
  viability, T/C: 85.4%
Second compound 1 µM, first compound 0.316 µM
  viability, T/C: 95.1%
Second compound 1 µM, first compound 1 µM
  viability, T/C: 89.3%
Second compound 1 µM, first compound 3.16 µM
  viability, T/C: 138%
Second compound 1 µM, first compound 10 µM
  viability, T/C: 80.8%
